Test systems include LOX IMVI; SK-MEL-2; U-251; HOP-92; HCT-15; UACC-257; MOLT-4; HCC 2998; DMS-114; MDA-MB-435; SNB-75; RPMI-8226; NCI-H522; M14; EKVX; CAKI-1; NCI-H226; Malme-3M; T47D; HOP-62.
Common to all, as to assay: NCI anticancer screen, dose series, 48 h

Molecules are shown by their SMILES.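 Interpolation was linear, between the two tested concentrations surrounding the appropriate level; five concentrations were tested over 48 hours in 96-well plates. GI50: concentration for 50% inhibition of growth.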 Activity calls are given as the source filed them. Rule as the data show it: active = GI50 up to about 1.1 µM and inactive = higher.

In the case of `CCCCCCCC(CC(=O)NC(CO)C(=O)NC(CO)CC(C)C)OC(=O)CC(CCCCCCC)OC(=O)CC(CCCCCCC)OC1OC(C)C(O)C(OC2OC(C)C(O)C(O)C2O)C1O` (stereo not given), the GI50 in the assay with LOX IMVI was 5.28 µM (inactive); in the assay with SK-MEL-2 it was 3.76 µM (inactive); with U-251, 11.1 µM (inactive); in the assay on HOP-92 it was 12 µM (inactive); in the assay with HCT-15, 19.7 µM; in the assay on UACC-257 it was 12.3 µM (inactive). The GI50 with MOLT-4 is 3.06 µM (inactive); in the assay with HCC 2998, 1.52 µM (inactive); in the assay on DMS-114, 3.83 µM (inactive); in the assay with MDA-MB-435, 6.52 µM (inactive); in the assay on SNB-75 it was 10.5 µM (inactive); with RPMI-8226 it was 2.37 µM (inactive). Further, the GI50 with NCI-H522 was 13 µM (inactive); in the assay with M14, 5.05 µM (inactive); in the assay with EKVX, 24.6 µM (inactive); with CAKI-1 it was 18.4 µM (inactive); with NCI-H226, 16.6 µM (inactive); in the assay with Malme-3M, 9.66 µM (inactive). The GI50 with T47D was 10.9 µM (inactive); in the assay with HOP-62, 18.9 µM (inactive).

The values are drawn from ChEMBL document CHEMBL1201862, “PubChem BioAssay data set” (2004).
